Laboratory results as given in a compilation of properties of binary mixtures (doi:10.1016/j.jct.2016.12.008).

Test: xn = mol fraction of the nth substance listed
Conditions: 100 kPa

O + CC[n+]1ccn(C)c1.N#C[S-]
x1 = 1
Conditions	viscosity [mPa·s]
288.15 K	1.13
298.15 K	0.89
308.15 K	0.72
313.15 K	0.65
318.15 K	0.6

CC[n+]1ccn(C)c1.N#C[S-] + O
viscosity [mPa·s]
Conditions	288.15 K	293.15 K	298.15 K	303.15 K	308.15 K	313.15 K	318.15 K
x2 = 0	34.24	27.9	22.68	19.09	–	14.18	–
x2 = 0.1006	27.45	–	18.74	16.03	13.87	–	10.71
x2 = 0.1948	21.99	18.63	15.93	–	–	10.58	–
x2 = 0.3026	18.6	15.74	13.44	11.61	10.14	8.93	7.94
x2 = 0.4011	15.07	12.81	10.99	–	8.39	7.43	6.62
x2 = 0.4979	12.4	10.43	8.94	7.77	6.83	6.07	5.43
x2 = 0.6043	9.2	7.9	6.85	6.01	–	4.74	4.26
x2 = 0.6887	7.15	6.17	5.38	–	–	3.74	3.35
x2 = 0.7981	4.7	–	–	–	–	–	–
x2 = 0.9105	2.53	–	2.02	1.79	1.6	–	1.31
x2 = 0.9443	–	1.76	1.57	1.39	1.25	1.13	1.03
x2 = 0.9506	1.86	1.67	1.49	1.32	1.19	–	0.98
